{
  "source": "patent US10849867B2",
  "about": "“Methods and compositions for treating conditions associated with an abnormal inflammatory response” (First Wave Bio, Inc., priority 2015, dated 2020)",
  "key": {"human LPMCs T cells": {"tested_on": "human LPMCs T cells", "assay": "ΔΨm in human LPMC CD45+CD3+ T cells, JC-1 flow cytometry (Example 12)", "type": "cell-based", "conditions": "5 μM, 60 min, JC-1, relative to negative control", "source_text": "The Model-Lamina propria mononuclear cells (LPMC) in the human intestine are comprised in part by T cells which mediate physiological and pathological processes including inflammatory bowel disease. LPMCs can be isolated from human tissue biopsies. After isolation […] cells remain viable ex vivo under appropriate culture conditions for periods of time that allow ex vivo experiments. These cells can be used to investigate mechanisms that regulate their mitochondrial function and survival They contain respiring mitochondria and as such their response to test agents may be assessed. Uncoupling is identified and quantified by a detecting a drop in the electrochemical gradient across the mitochondrial inner membrane (ΔΨm). […] The isolated cells were counted and checked for viability using 0.1% trypan blue (viability ranged from 86% to 94%). […] A flow cytometer FACSVerse flow cytometer and FACSSuite software [BD Biosciences] was used for quantification of JC-1 fluorescence in CD45+CD3+ cells. […] Consequently, mitochondrial depolarization is indicated by a decrease in the red/green fluorescence intensity ratio. […] LPMC CD45+CD3+ T cells were first defined by their fluorescence emission from labeling with eFluor® 450-anti-CD3 antibody and PerCP-Cyanine5.5-[…] antibody. The fluorescence intensity of JC-1 detected at 525 nm and 590 nm in the CD45+CD3+ T cell population was then measured. […]"}, "TNBS-induced colitis": {"tested_on": "TNBS-induced colitis", "assay": "TNBS colitis in mice, niclosamide suspension administered rectally as enema (Example 9)", "type": "in vivo, male Balb/c mice", "source_text": "Model: Intra-rectal administration of trinitrobenzene sulfonic acid (TNBS) to mice results in colitis. TNBS elicits cell-mediated immune responses and induces transmural inflammation in the gut with morphological and histopathological features similar to those of human inflammatory bowel disease. TNBS induces diffuse colonic inflammation, characterized by increased leukocyte infiltration, edema, and ulceration. It is very well reported that administration of TNBS is associated with predominant activation of Th1-mediated immune response manifested by increased cytokines such as interferon-γ (IFN-γ), tumor necrosis factor-α (TNF-α) and interleukin-17A (IL-17A) as well as dense infiltration of CD4+ T cells. Disease activity in the TNBS model can be determined by loss of body weight, histopathological evaluation of the colon showing evidence of inflammatory damage and evidence of pro-inflammatory cytokines detected in colon tissue. Animals and Treatments: Studies of TNBS colitis were performed in 8- to 12-week-old male Balb/c mice (Jackson Laboratories, stock number 000651). […] Weight changes were recorded daily and tissues were collected for histologic study and RNA analysis at the end of the study. […] Gene expression was calculated using the ΔΔCt algorithm."}, "[1]": {"assay": "Colon concentration in mice compared with uncoupling concentration (Example 6)", "type": "in vivo", "description": "Model. Results from Examples 2 and 5 are used together. […] This concentration is directly compared to the dose-response data to determine if efficacious exposure is sufficient to induce mitochondrial uncoupling in colon.\nPharmacokinetic study design.\nCalculation of target coverage. The average area under the colon concentration versus time curve (AUC) and the peak concentration is calculated and is plotted and is graphed."}, "[2]": {"tested_on": "TNBS model of ulcerative colitis", "assay": "Murine TNBS model of ulcerative colitis, rectal versus intraperitoneal (FIG. 2)", "type": "in vivo"}},
  "data": [
    {"smiles": "O=C(Nc1ccc([N+](=O)[O-])cc1Cl)c1cc(Cl)ccc1O", "note": "[Niclosamide, 5-chloro-N-(2-chloro-4-nitrophenyl)-2-hydroxybenzamide]", "values": [
      {"measurement": "change in ΔΨm in human LPMCs T cells", "setting": "human LPMCs T cells", "result": "decrease"},
      {"measurement": "body weight", "setting": "TNBS-induced colitis; rectal 30 mg/kg on days 1 and 2, TNBS-induced colitis", "result": "recovery of body weight"},
      {"measurement": "colitis score (H&E analysis of colon biopsies)", "setting": "TNBS-induced colitis; rectal 30 mg/kg on days 1 and 2, compared to vehicle control or TNBS only", "result": "significantly lower"},
      {"measurement": "concentration in the colon", "setting": "[1]; single rectal dose 1 mg/kg (below maximal efficacy)", "result": "< 5", "unit": "µM"},
      {"measurement": "colon peak concentration", "setting": "[1]; single rectal dose 3 mg/kg (therapeutic dosage)", "result": "> 5", "unit": "µM"},
      {"measurement": "efficacy in murine TNBS model of ulcerative colitis", "setting": "[2]; administered rectally (locally)", "result": "robust efficacy"},
      {"measurement": "efficacy in murine TNBS model of ulcerative colitis", "setting": "[2]; intraperitoneal injection (systemically)", "result": "not by intraperitoneal injection"}
    ]}
  ]
}
